From paper PMC7689089, “Regorafenib combined with PD1 blockade increases CD8 T-cell infiltration by inducing CXCL10 expression in hepatocellular carcinoma” (Journal for Immunotherapy of Cancer, 2020)

Key:
[1] = system: RIL-175 cells; assay: CXCL10 secretion by RIL-175 cells in vitro (ELISA); format: cell-based, mouse; details: 36 hours
Description: To determine if CXCL10 was produced by murine HCC cells in response to regorafenib treatment, we next cultured RIL-175 cells with various concentration of regorafenib in vitro and measured the CXCL10 levels by ELISA. […]
(§1) treated by regorafenib as standard of care (HCC) (using the DFCI Protocol No.: 13-416 “Collection of Specimens and Clinical Data for Patients with Known or Suspected Solid Tumors”, PI, Dr. Juric, MGH) or in a phase I clinical trial of regorafenib monotherapy in acute myeloid leukemia (AML) patients (ClinicalTrials.gov Identifier: NCT03042689, PI, Hobbs, MGH). Both protocols have been IRB approved, and written consent was obtained from all patients.
Protein analyses. Western blotting was performed using antibodies against Stat1 (D1K9Y), phosphorylated (p)-Stat1 (Tyr701) (D4A7), Stat3 (79D7), p-Stat3 (Ser727) (Cell Signaling Technology, Danvers, MA), and IFN-γ (EPR1108) (Abcam, Cambridge, MA). Multiplexed protein array analysis was performed for protein extracts from whole tumors, using V-PLEX Proinflammatory Panel 1 Mouse Kit, V-PLEX Cytokine Panel 1 Mouse Kit and V-PLEX […] (Meso-Scale Discovery, Rockville, MD). For cell supernatant collection, 1x10^6 of RIL-175 cells were cultured in DMEM medium with 2% FBS and regorafenib was given in a various dose.
Supernatant was collected after 36hr of incubation and multiplexed protein array analysis was done using the same kit above.
Flow cytometry analysis. Tumor tissues were extracted from the mice, weighted and minced with a scalpel. Hank’s buffered salt solution (HBSS) with 1.5mg/ml of collagenase and hyaluronidase was added to the minced tissues and incubated for 30 min at 37°C. After incubation, digested tissues were passed through the 70μm cell strainer and washed with PBS with 2% BSA. After preparation, cells were suspended in 2ml of PBS with 2% BSA, then counted using a cell counting plate (Kova slide) (if the final concentration of cell exceeded 10^7 cells/ml, a dilution factor was applied). One hundred microliters of this suspension were used per subsequent flow cytometry staining. […]

[2] = system: RIL-175 orthotopic HCC; assay: Survival, orthotopic RIL-175 HCC in Rag1–/–/C57Bl/6 mice; format: in vivo, mouse; details: regorafenib 10 mg/kg; Rag1–/– mice lacking functional T cells
Method: Regorafenib was provided by Bayer and administered by oral gavage daily at a dose of 5, 10 and 20 mg/kg in 34% 1,2-propandiol (Sigma-Aldrich), 34% PEG400 (Sigma-Aldrich), 12% pluronic F68 (Thermo Fischer Scientific, Waltham, Massachusetts, USA), and 20% water, as per manufacturer’s recommendation. Mouse anti-PD1 antibody (clone RMP-014) was purchased from BioXcell (Lebanon, New Hampshire, USA) and Mouse IgG isotype control was purchased from Thermo Fischer Scientific. The STAT3 inhibitor LLL12 was purchased from BioVision (Milpitas, California, USA). Antimouse PD1 antibody or IgG (control) were given intraperitoneally at a dose of 10 mg/kg thrice weekly, as described.[11] Daily gavage of vehicle and intraperitoneal injection of 10 mg/kg of isotype-matched IgG were given as control treatments for anti-PD1 antibody. For the survival studies, moribund status was used as the end point and moribund was defined as symptoms of prolonged distress, >15% of weight loss compared with the starting date, body condition score >2 and tumor size of >24 mm in diameter.
All statistical analyzes were performed using Stata software, V.14.1 (StataCorp, College Station, Texas, USA). […] Quantitative variables were compared using Student’s t-test. […] Statistical analyses in the survival experiments were performed by Cox proportional hazard model and HR and 95% CIs were calculated as well.

[3] = system: CXCL10; assay: Plasma CXCL10 in patients before and after 2 weeks of regorafenib; format: in vivo, human; details: patients with advanced HCC (n=1) and AML (n=7); after 2 weeks of treatment
Description: Formalin-fixed paraffin-embedded HCC tissue and blood samples were obtained with informed consent from a published cohort of deidentified patients who underwent liver resection at the department of Surgery at Fundeni Clinical Institute, Bucharest, Romania.[31] Furthermore, we collected blood samples with informed consent from patients treated by regorafenib as standard of care (HCC) or in a phase I clinical trial of regorafenib monotherapy in patients with acute myeloid leukemia (AML). Peripheral blood was collected before regorafenib therapy and after 2 weeks of treatment and processed in a Clinical Laboratory Improvement Amendments-certified facility of the Steele Laboratories at MGH. […]
as §1
Protein analyses. […]
Flow cytometry analysis. […] After preparation, cells were suspended in 2ml of PBS with 2% BSA, then counted using a cell counting plate (Kova slide) (if the final concentration of cell exceeded 10^7 cells/ml, a dilution factor was applied). […]

[4] = Pharmacokinetic analysis of regorafenib and metabolites in plasma and tumor tissue of mice with HCC and liver damage; details: n=4-5 mice
Method: From the orthotopic HCC and liver damage mouse models described above, blood samples were collected at 1, 4, 7 and 24 hours after once-daily oral administration of 5, 10 and 20 mg/kg regorafenib, respectively, for 5 days. Anti-PD1 antibody was given on days 1 and 4 with dose of 10 mg/kg by intraperitoneal injection. Blood samples were drawn from four to five animals per sampling time point. Regorafenib and its active metabolites M-2, M-4 and M-5 were analyzed in plasma samples using a validated bioanalytical liquid chromatography-tandem mass spectrometry.[25 33] Pharmacokinetic (PK) parameters were derived from the area under the plasma concentration versus time curve (AUC) using a non-compartmental analysis.
In addition, we evaluated PK parameters in HCC-bearing mice after regorafenib administration alone at doses of 5, 10 and 20 mg/kg or in combination with anti-PD1 therapy at the 10 mg/kg regorafenib dose for 5 days to achieve a steady state.

CNC(=O)c1cc(Oc2ccc(NC(=O)Nc3ccc(Cl)c(C(F)(F)F)c3)c(F)c2)ccn1 [regorafenib]
Regorafenib concentration at peak CXCL10 secretion [1]: 1 µM | Level of CXCL10 secreted by RIL-175 cells ([1]; various concentrations, n=6): significantly increased | Survival [2]: no significant benefit | Concentration of plasma CXCL10 [3]: increased concentration | Plasma maximum concentration (Cmax), R10 alone versus R10+P [4]: No difference
